Measurements published in patent US9908893B2 (Latvian Institute of Organic Synthesis, priority 2013, dated 2018).

Key:
[1] = tested on: A7R5 (rat aorta smooth muscle) cells; assay: Intracellular Ca2+ measurements, Fluo-4 NW Calcium Assay Kit, KCl-induced [Ca2+]i increase; format: cell-based; settings: for IC50: Rattus norvegicus, A7R5, read-out: Ca^2+ A7R5, IC50; for Ca^2+ antagonist effect compared with Verapamil: relative to Verapamil
Description: Changes in intracellular [Ca^2+] concentration were studied using A7R5 (rat aorta smooth muscle) cells and Fluo-4 NW Calcium Assay Kit (“Invitrogen”, Sweden) according to manufacturer's instructions.
Changes in intracellular [Ca^2+]i concentration were studied using Fluo-4 NW Calcium Assay Kit (“Invitrogen”, Sweden) accordingly to manufacturer's instructions. The A7R5 (rat aorta smooth muscle) cells were grown at 37° C. in a humidified atmosphere with 5% CO2/95% air in DMEM medium containing 2 mM glutamine and supplemented with 10% FBS. The cells were seeded into 96 well plate at 10,000 cells/well and incubated for 72 h. The cells were loaded with […] for 45 min. The Fura-4NW loaded cells were pre-incubated in the dark for 15 minutes with tested compounds at concentrations from 0.8 to 100 μM. Then A7R5 cells were pre-treated with 1.5 mM CaCl2 for 5 minutes and KCl (50 mM) was added to A7R5 cells to induce [Ca^2+]i increase. Amlodipine, the well-known calcium channel inhibitor was used as the positive control.

[2] = Basal toxicity test, neutral red, alternative LD50 calculated from IC50; settings: mouse, LD50, alternative LD50 calculated by formula from IC50 in NIH 3T3 cells
Description: (§1) A low therapeutic index of chemotherapy agents is due to affecting not only cancer formation but also normal cells.
(§2) 9,000 NIH 3T3 cells/well were placed into 96-well plates for 24 h and then exposed to the test compound over a range of eight concentration (1-1000 μg/ml) for 24 h. Upon that, the cells were incubated with the neutral red dye for 4 h and then OD was determined at 540 nm. […] The IC50 values were calculated using the program Graph Pad Prism® 4.0

[3] = tested on: NIH 3T3 (normal mouse fibroblasts); assay: as above; settings: alternative LD50 calculated by formula from IC50 in NIH 3T3 cells, 24 h
Description: as §1, §2

P-glycoprotein (P-gp) = P-glycoprotein (P-gp) (Homo sapiens, UniProt P08183); assay: Measurement of P-glycoprotein activity: rhodamine 123 accumulation in MES-SA and MES-SA/Dx5 cells
Description: (§3) Thieno[2,3-b]pyridines of the formula (I) were tested to reveal MDR-blocking activity.
About 50,000 cells/well of the human uterine sarcoma cell line MESSA and MES-SA/Dx5 were seeded into the 96-well plates and incubated for 24 h. The MDR modulators were incubated with the cells for 15 min. […] The EC50 values were calculated using the program Graph Pad Prism® 4.0.

MRP1 = MRP1 (Homo sapiens, UniProt P33527); assay: cell-based; settings: for MDR, EC50, MRP1: calcein AM assay, DOX resistant H69AR cells
Description: as §3
About 60,000 cells/well of the human lung carcinoma cell line H69 and H69AR were seeded into the 96-well plates and incubated for 24 h. The compounds were incubated with the cells for 15 min. […] The EC50 values was calculated using the program Graph Pad Prism® 4.0

BCRP1 = molecular target: T1, BCRP1 (Homo sapiens, UniProt Q9UNQ0); assay: cell-based; settings: for MDR, EC50, BCRP1: Hoechst 33342, mitoxantrone resistant MES-SA/MX2 cells
T1 sequence (Q9UNQ0 1-655): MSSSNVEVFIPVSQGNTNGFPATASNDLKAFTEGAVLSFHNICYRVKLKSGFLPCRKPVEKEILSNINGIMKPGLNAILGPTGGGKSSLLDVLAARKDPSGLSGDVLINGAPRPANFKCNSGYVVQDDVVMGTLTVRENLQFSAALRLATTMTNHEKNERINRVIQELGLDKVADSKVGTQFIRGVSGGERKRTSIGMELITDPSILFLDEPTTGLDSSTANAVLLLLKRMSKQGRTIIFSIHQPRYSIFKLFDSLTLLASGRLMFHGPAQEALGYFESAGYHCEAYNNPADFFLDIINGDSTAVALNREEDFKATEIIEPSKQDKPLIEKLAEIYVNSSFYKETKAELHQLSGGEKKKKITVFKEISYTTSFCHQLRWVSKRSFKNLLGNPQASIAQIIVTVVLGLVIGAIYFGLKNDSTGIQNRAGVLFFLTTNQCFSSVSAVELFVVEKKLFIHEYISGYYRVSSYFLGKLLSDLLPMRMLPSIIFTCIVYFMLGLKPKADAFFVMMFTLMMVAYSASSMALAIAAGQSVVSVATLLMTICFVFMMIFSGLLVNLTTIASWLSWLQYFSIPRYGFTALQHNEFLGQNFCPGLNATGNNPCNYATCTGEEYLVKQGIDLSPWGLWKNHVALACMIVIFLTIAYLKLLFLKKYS
Description: as §3
About 50,000 cells/well of the MESSA and MES-SA/MX2 were seeded into the 96-well plates and incubated for 24 h. The MDR modulators were incubated with the cells for 15 min. […] The EC50 values were calculated using the program Graph Pad Prism® 4.0

P-glycoprotein (P-gp), sequence (P08183 whole entry): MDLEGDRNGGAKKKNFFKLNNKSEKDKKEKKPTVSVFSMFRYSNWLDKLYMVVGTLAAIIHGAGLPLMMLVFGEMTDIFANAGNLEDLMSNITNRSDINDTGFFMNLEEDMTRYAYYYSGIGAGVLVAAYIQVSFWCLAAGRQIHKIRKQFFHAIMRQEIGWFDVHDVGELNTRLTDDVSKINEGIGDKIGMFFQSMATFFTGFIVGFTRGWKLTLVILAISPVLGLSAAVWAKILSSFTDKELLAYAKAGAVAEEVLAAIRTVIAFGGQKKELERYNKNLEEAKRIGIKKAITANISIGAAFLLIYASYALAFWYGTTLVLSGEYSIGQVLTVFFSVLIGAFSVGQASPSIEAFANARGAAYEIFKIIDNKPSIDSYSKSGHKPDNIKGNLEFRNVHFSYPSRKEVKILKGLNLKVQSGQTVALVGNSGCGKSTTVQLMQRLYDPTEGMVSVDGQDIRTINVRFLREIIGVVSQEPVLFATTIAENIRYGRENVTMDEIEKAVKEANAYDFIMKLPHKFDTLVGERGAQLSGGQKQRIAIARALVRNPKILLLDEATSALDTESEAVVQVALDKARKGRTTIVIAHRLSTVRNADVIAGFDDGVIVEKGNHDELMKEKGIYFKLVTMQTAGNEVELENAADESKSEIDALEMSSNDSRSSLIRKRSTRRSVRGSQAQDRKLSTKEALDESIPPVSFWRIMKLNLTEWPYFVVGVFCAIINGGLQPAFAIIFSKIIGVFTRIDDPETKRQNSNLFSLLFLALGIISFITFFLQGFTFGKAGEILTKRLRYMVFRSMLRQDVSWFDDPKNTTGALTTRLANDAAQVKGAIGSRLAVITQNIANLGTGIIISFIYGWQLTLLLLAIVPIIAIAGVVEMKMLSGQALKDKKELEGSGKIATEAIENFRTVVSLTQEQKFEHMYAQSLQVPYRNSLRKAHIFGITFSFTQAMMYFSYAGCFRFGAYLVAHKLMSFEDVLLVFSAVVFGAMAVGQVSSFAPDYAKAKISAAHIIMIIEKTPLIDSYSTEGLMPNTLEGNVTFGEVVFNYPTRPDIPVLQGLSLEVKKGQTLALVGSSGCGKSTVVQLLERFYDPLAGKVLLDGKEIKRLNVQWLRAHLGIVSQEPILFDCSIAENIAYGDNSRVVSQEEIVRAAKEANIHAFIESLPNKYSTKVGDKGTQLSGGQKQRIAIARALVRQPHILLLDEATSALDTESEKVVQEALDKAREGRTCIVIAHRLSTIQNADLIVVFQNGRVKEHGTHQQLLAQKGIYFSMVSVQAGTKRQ
MRP1, sequence (P33527 whole entry): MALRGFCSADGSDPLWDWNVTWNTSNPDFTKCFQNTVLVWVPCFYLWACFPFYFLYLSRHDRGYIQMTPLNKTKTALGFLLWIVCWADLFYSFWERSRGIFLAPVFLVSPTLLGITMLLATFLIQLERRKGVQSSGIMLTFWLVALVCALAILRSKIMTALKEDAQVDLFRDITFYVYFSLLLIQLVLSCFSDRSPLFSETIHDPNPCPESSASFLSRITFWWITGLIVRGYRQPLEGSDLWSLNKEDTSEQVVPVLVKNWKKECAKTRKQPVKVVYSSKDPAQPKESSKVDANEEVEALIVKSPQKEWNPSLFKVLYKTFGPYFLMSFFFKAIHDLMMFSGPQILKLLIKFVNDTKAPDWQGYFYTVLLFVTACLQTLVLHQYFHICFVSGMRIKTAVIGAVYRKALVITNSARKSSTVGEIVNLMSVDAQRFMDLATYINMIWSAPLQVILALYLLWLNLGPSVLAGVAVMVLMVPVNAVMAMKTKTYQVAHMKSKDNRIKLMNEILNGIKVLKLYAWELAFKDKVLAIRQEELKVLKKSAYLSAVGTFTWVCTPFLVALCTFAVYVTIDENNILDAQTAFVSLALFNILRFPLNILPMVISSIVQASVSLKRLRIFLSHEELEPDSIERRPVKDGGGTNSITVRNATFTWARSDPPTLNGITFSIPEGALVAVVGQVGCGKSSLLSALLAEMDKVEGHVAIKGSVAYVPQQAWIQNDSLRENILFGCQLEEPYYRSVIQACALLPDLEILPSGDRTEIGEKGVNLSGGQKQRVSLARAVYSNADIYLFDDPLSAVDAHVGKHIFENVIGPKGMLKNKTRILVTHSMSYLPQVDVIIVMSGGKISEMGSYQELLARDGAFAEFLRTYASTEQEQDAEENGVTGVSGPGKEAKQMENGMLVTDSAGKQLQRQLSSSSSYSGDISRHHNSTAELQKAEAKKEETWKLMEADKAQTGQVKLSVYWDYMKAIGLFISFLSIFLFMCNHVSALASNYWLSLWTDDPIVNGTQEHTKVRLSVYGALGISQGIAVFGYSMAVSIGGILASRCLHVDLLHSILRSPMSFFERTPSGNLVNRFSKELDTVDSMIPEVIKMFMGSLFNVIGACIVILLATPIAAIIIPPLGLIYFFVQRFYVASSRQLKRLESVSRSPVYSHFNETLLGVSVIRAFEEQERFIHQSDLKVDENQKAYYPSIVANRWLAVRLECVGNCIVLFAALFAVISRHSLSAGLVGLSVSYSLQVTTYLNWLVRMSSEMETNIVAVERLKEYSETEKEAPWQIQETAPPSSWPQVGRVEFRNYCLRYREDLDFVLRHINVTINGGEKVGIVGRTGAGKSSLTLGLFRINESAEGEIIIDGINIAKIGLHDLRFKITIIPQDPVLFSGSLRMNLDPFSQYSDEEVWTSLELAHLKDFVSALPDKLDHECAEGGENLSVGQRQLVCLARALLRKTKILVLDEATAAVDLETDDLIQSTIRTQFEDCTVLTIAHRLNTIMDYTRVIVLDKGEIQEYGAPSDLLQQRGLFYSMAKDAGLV

Compound | IC50 [1] [µM] | Ca^2+ antagonist effect compared with Verapamil ([1]; A7R5 cells) | LD50 at 24 h [2] [mg/kg] | LD50 [3] [mg/kg] | EC50 (P-glycoprotein (P-gp)) [µM] | MDR, EC50, MRP1 (MRP1) | EC50 (BCRP1) [µM] | EC50 (MRP1) [µM] | MDR, EC50, P-gp (P-glycoprotein (P-gp); rhodamine 123 accumulation, doxorubicin resistant MES-SA/Dx5 cells) | MDR, EC50, BCRP1 (BCRP1) | Ca^2+ A7R5, IC50 ([1]; A7R5 cells, KCl (50 mM) induced [Ca2+]i increase, compounds 0.8 to 100 μM)
COC(=O)c1c(C)nc2sc(C(=O)c3ccc(OC)cc3)c(N)c2c1-c1ccc(OC)c(OC)c1 [Compound 6, 3-Amino-4-(3,4-dimethoxyphenyl)-2-(4-methoxybenzoyl)-6-methyl-thieno[2,3-b]-pyridine-5-carboxylic acid methyl ester] | 6 ± 0.8 | more than ten times lower | > 2000 | 2808 |  |  |  |  |  |  | 
CCOC(=O)c1c(C)nc2sc(C(=O)c3ccc(OC)cc3)c(N)c2c1-c1cc(OC)c(OC)c(OC)c1 [Compound 24, 3-Amino-2-(4-methoxybenzoyl)-6-methyl-4-(3,4,5-trimethoxyphenyl)thieno[2,3-b]-pyridine-5-carboxylic acid ethyl ester] | 19 ± 3 | more than ten times lower | > 2000 | >2000 |  |  |  |  |  |  | 
CCOC(=O)c1c(C)nc2sc(C(=O)c3ccc(OC)cc3OC)c(N)c2c1-c1cc(OC)c(OC)c(OC)c1 [Compound 25, 3-Amino-2-(2,4-dimethoxybenzoyl)-6-methyl-4-(3,4,5-trimethoxyphenyl)-thieno[2,3-b]pyridine-5-carboxylic acid ethyl ester] | 46 ± 1.4 | more than ten times lower | > 2000 | >2000 |  |  |  |  |  |  | 
COC(=O)c1c(C)nc2sc(C(=O)c3ccc4ccccc4c3)c(N)c2c1-c1cc(OC)c(OC)c(OC)c1 [Compound 41, 3-Amino-6-methyl-2-(naphthalene-2-carbonyl)-4-(3,4,5-trimethoxyphenyl)-thieno[2,3-b]pyridine-5-carboxylic acid methyl ester] | 18 ± 1.4 |  | > 2000 |  | 10.5 ± 0.7 | No effect | 0.8 ± 0.2 |  |  |  | 
CCOC(=O)c1c(C)nc2sc(C(=O)c3ccc(OC)cc3)c(N)c2c1-c1ccc2c(c1)OCO2 [Compound 42, 3-Amino-4-(benzo[1,3]dioxol-5-yl)-2-(4-methoxybenzoyl)-6-methylthieno[2,3-b]-pyridine-5-carboxylic acid ethyl ester] | 18 ± 1 |  | 2010 |  | 20.4 ± 0.1 |  | 2.3 ± 0.4 | 24.8 ± 1.2 |  |  | 
CCOC(=O)c1c(C)nc2sc(C(=O)c3ccc(OC)cc3)c(N)c2c1-c1ccco1 [Compound 43, 3-Amino-4-(furan-2-yl)-2-(4-methoxybenzoyl)-6-methylthieno[2,3-b]pyridine-5-carboxylic acid ethyl ester] |  |  |  |  |  | No effect |  |  | No effect | No effect | 
COc1cc(-c2cc(-c3cc(OC)c(OC)c(OC)c3)c3c(N)c(C(=O)c4ccc(Cl)cc4)sc3n2)cc(OC)c1OC [Compound 47, 3-Amino-4,6-bis-(3,4,5-trimethoxyphenyl)-2-(4-chlorobenzoyl)thieno[2,3-b]-pyridine] |  |  | > 2000 |  | 31.4 ± 0.8 | No effect | 14.5 ± 3.5 |  |  |  | 
COc1ccc(C(=O)c2sc3nc(-c4cc(OC)c(OC)c(OC)c4)cc(-c4cc(OC)c(OC)c(OC)c4)c3c2N)cc1 [Compound 48, 3-Amino-4,6-bis-(3,4,5-trimethoxyphenyl)-2-(4-methoxybenzoyl)thieno[2,3-b]-pyridine] |  |  | 3080 |  | 32.5 ± 2.1 | No effect |  |  |  | No effect | No effect
